What was measured:
Type in all cases: in vivo, human
participants with SSc-RP [1] = test: Average pain score recorded during weekly RP attacks (11-point Likert scale); settings: Tadalafil 5 mg (n = 4); Table G
Source text: The absolute change in average pain score (11-point Likert scale) of weekly RP attacks from baseline to the end of each Dosing Period will be a secondary outcome variable. The sponsor-developed participant-informed diary will be used to record data. The average pain score of weekly RP attacks is defined as the total pain scores divided by total number of RP attacks within the last 7 days of each dosing period. Average of the last 7 days of screening assessments will be used as baseline for the analysis of all periods. The variable will be calculated similar to frequency data as before.

participants with SSc-RP [2] = test: SHAQ - Visual Analog Scale - Finger Ulcers
Source text: (§1) The standard, validated, patient reported outcome measures tool for SSc patients, the Scleroderma Health Assessment Questionnaire (SHAQ), will be used to assess the participant qualify of life. Details are attached in the Appendix. The participant quality of life will be scored, and a disability index calculated for each questionnaire completed by the patient at Screening and each in-clinic visit. The absolute change in participant quality of life from baseline to the end of each dosing period will be calculated similar to frequency data as before.
(§2) The standard, validated, patient reported outcome measures tool for SSc patients, the SHAQ, was collected at the time points specified in the study schedules (FIG. 2 and FIGS. 4A and 4B) to assess the participant's quality of life. The SHAQ included a Raynaud's VAS that will also be reported separately.

participants with SSc-RP [3] = test: SHAQ - Visual Analog Scale - Overall Disease Severity; settings: tadalafil 5 mg
Source text: as §1, §2

[4] = Tadalafil 5 mg (N = 5), Day 12, PP Population, Part A

With `CN1CC(=O)N2[C@H](c3ccc4c(c3)OCO4)c3[nH]c4ccccc4c3C[C@@H]2C1=O` [Tadalafil] the “Average Pain Score Change From Baseline [Mean (SD)]” value (participants with SSc-RP [1]) was 0.37, the “SHAQ Visual Analogue Scale - Finger Ulcers, Change from Baseline, Mean” value (participants with SSc-RP [2]; [4]) was 0.250 and the “SHAQ Visual Analogue Scale - Finger Ulcers, Change from Baseline, Median” value (participants with SSc-RP [2]; [4]) was 0.000. For the same molecule, the “SHAQ Visual Analogue Scale - Finger Ulcers, Percent Change from Baseline, Mean” value (participants with SSc-RP [2]; [4]) was 6.10%, the “SHAQ Visual Analogue Scale - Finger Ulcers, Percent Change from Baseline, Median” value (participants with SSc-RP [2]; [4]) was 6.10% and the “VAS Finger Ulcers Change from Baseline Max” value (participants with SSc-RP [2]; tadalafil 5 mg) was 1.00. For the same molecule, the “VAS Finger Ulcers Change from Baseline Mean” value (participants with SSc-RP [2]; tadalafil 5 mg) was 0.250, the “VAS Finger Ulcers Change from Baseline Median” value (participants with SSc-RP [2]; tadalafil 5 mg) was 0.000 and the “VAS Finger Ulcers Change from Baseline Min” value (participants with SSc-RP [2]; tadalafil 5 mg) was 0.00. For the same molecule, the “VAS Finger Ulcers Change from Baseline Q1” value (participants with SSc-RP [2]; tadalafil 5 mg) was 0.000, the “VAS Finger Ulcers Change from Baseline Q3” value (participants with SSc-RP [2]; tadalafil 5 mg) was 0.500 and the “VAS Finger Ulcers Day 12 Max” value (participants with SSc-RP [2]; tadalafil 5 mg) was 9.20. For the same molecule, the “VAS Finger Ulcers Day 12 Median” value (participants with SSc-RP [2]; tadalafil 5 mg) was 0.050, the “VAS Finger Ulcers Day 12 Min” value (participants with SSc-RP [2]; tadalafil 5 mg) was 0.00 and the “VAS Finger Ulcers Day 12 Q1” value (participants with SSc-RP [2]; tadalafil 5 mg) was 0.000. The “VAS Finger Ulcers Day 12 Q3” value (participants with SSc-RP [2]; tadalafil 5 mg) was 4.650, the “VAS Finger Ulcers Percent Change from Baseline Max” value (participants with SSc-RP [2]; tadalafil 5 mg) was 12.2% and the “VAS Finger Ulcers Percent Change from Baseline Mean” value (participants with SSc-RP [2]; tadalafil 5 mg) was 6.10%. The “VAS Finger Ulcers Percent Change from Baseline Median” value (participants with SSc-RP [2]; tadalafil 5 mg) was 6.10%, the “VAS Finger Ulcers Percent Change from Baseline Min” value (participants with SSc-RP [2]; tadalafil 5 mg) was 0.0% and the “VAS Finger Ulcers Percent Change from Baseline Q1” value (participants with SSc-RP [2]; tadalafil 5 mg) was 0.00%. For the same molecule, the “VAS Finger Ulcers Percent Change from Baseline Q3” value (participants with SSc-RP [2]; tadalafil 5 mg) was 12.20%, the “VAS Overall Severity Change from Baseline Max” value (participants with SSc-RP [3]) was 2.40 and the “VAS Overall Severity Change from Baseline Median” value (participants with SSc-RP [3]) was 0.700. The “VAS Overall Severity Change from Baseline Min” value (participants with SSc-RP [3]) was −1.30, the “VAS Overall Severity Change from Baseline Q1” value (participants with SSc-RP [3]) was −0.600 and the “VAS Overall Severity Change from Baseline Q3” value (participants with SSc-RP [3]) was 1.850. The “VAS Overall Severity Day 12 Max” value (participants with SSc-RP [3]) was 9.10, the “VAS Overall Severity Day 12 Mean” value (participants with SSc-RP [3]) was 5.600 and the “VAS Overall Severity Day 12 Min” value (participants with SSc-RP [3]) was 0.20. The “VAS Overall Severity Day 12 Q1” value (participants with SSc-RP [3]) was 2.200, the “VAS Overall Severity Day 12 Q3” value (participants with SSc-RP [3]) was 9.000 and the “VAS Overall Severity Percent Change from Baseline Max” value (participants with SSc-RP [3]) was 100.0%. For the same molecule, the “VAS Overall Severity Percent Change from Baseline Min” value (participants with SSc-RP [3]) was −23.6%, the “VAS Overall Severity Percent Change from Baseline Q1” value (participants with SSc-RP [3]) was −3.48% and the “VAS Overall Severity Percent Change from Baseline Q3” value (participants with SSc-RP [3]) was 68.46%.
